Measurements reported in ChEMBL document CHEMBL5291721, “A preclinical secondary pharmacology resource illuminates target-adverse drug reaction associations of marketed drugs” (Nat Commun, 2023).

Columns and labels:
Adenosine receptor A3 = target: T1, Adenosine receptor A3 (Homo sapiens, UniProt P0DMS8)
T1 sequence (P0DMS8 whole entry): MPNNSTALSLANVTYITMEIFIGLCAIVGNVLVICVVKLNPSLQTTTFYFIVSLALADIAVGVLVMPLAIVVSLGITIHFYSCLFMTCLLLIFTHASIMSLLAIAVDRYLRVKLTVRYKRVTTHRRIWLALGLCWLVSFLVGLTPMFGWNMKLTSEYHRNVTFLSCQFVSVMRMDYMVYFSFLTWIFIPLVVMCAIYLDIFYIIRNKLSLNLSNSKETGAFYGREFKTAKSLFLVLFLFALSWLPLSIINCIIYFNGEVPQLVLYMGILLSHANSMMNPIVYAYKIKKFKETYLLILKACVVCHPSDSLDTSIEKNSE

[1] = target: Voltage-gated inwardly rectifying potassium channel KCNH2 (Homo sapiens, UniProt Q12809); type: functional; settings: read-out: AC50
Chain of Voltage-gated inwardly rectifying potassium channel KCNH2 (Q12809 whole entry): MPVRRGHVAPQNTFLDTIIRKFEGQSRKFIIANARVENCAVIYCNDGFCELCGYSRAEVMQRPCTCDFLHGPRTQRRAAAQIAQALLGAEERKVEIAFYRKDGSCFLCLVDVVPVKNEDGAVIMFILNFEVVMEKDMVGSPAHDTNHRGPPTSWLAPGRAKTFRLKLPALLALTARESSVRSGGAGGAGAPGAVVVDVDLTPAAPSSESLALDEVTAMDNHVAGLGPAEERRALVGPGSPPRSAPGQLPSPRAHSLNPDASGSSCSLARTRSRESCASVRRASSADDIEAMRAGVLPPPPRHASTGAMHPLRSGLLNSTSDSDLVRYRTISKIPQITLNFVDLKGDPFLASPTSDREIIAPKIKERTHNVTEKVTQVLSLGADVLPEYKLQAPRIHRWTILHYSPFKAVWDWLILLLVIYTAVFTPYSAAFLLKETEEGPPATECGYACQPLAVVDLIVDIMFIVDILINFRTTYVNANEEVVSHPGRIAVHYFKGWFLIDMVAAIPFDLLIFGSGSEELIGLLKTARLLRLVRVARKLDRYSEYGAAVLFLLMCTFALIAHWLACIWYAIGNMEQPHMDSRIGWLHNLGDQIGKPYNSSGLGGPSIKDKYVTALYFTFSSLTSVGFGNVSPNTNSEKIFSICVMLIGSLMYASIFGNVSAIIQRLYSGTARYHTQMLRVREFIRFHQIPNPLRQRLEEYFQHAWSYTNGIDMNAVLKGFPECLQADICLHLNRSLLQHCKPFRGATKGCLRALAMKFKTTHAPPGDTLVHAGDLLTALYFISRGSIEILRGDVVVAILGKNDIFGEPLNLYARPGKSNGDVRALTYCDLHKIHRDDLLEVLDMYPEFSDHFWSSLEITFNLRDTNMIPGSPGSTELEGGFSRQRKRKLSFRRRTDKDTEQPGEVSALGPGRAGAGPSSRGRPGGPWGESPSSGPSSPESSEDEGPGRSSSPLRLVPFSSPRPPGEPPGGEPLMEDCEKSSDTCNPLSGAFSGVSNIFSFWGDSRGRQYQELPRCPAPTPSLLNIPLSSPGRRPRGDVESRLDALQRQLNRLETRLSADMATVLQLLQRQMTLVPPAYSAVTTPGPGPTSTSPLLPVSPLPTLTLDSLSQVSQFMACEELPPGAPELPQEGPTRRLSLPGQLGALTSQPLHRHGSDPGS

Melanocortin receptor 3 = Melanocortin receptor 3 (Homo sapiens, UniProt P41968)
Chain of Melanocortin receptor 3 (P41968 whole entry): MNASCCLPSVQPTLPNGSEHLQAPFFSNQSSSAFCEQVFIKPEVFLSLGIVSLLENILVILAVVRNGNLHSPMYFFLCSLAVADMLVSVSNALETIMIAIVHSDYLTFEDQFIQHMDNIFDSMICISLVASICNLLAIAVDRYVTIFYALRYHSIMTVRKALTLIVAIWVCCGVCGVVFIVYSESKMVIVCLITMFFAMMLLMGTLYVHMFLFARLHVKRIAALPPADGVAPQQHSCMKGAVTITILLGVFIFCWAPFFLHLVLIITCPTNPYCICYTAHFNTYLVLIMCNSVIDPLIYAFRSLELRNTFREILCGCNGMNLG

[2] = target: T2, Alpha-1A adrenergic receptor (Homo sapiens, UniProt P35348); type: functional, cell-based
T2 sequence (P35348 whole entry): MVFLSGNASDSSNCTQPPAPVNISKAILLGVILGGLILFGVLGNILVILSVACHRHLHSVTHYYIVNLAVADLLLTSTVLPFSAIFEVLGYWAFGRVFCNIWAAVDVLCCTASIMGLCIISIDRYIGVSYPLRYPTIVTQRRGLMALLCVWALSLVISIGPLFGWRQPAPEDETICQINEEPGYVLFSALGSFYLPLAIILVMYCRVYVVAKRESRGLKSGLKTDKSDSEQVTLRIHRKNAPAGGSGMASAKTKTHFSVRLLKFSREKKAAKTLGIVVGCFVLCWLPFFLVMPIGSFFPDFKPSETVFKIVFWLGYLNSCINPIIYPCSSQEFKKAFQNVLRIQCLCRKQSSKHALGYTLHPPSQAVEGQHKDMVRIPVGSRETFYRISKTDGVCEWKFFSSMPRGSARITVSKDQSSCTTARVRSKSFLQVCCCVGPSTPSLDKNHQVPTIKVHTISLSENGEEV

Adenosine receptor A1 = target: T3, Adenosine receptor A1 (Homo sapiens, UniProt P30542)
T3 sequence (P30542 whole entry): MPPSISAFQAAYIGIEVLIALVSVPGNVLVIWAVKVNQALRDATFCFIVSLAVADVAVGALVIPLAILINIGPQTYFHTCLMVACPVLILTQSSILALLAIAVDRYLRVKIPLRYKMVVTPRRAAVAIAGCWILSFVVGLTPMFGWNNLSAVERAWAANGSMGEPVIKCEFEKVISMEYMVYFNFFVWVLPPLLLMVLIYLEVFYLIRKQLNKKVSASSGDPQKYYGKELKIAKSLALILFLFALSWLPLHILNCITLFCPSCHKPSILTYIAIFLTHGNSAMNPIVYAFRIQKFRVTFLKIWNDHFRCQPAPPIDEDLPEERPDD

[3] = target: T4, Prostaglandin G/H synthase 1 (Rattus norvegicus, UniProt Q63921); type: functional
T4 sequence (Q63921 whole entry): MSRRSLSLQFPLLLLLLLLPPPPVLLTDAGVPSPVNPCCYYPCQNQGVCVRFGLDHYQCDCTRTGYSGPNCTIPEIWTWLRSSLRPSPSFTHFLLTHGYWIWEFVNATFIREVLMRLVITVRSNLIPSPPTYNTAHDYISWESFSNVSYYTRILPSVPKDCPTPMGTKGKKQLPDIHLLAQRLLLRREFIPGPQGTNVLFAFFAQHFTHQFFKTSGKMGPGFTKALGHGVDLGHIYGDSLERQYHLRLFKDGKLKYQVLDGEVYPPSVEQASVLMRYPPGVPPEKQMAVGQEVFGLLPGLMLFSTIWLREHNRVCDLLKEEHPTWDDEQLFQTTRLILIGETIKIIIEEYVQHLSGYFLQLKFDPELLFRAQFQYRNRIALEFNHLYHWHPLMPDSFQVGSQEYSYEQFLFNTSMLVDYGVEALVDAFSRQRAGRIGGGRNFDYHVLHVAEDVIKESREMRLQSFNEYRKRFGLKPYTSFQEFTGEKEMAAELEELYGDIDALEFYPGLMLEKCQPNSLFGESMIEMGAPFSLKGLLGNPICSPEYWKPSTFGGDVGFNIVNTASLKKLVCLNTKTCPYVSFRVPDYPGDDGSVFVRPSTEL

Histamine H1 receptor = Histamine H1 receptor (Homo sapiens, UniProt P35367)
Chain of Histamine H1 receptor (P35367 whole entry): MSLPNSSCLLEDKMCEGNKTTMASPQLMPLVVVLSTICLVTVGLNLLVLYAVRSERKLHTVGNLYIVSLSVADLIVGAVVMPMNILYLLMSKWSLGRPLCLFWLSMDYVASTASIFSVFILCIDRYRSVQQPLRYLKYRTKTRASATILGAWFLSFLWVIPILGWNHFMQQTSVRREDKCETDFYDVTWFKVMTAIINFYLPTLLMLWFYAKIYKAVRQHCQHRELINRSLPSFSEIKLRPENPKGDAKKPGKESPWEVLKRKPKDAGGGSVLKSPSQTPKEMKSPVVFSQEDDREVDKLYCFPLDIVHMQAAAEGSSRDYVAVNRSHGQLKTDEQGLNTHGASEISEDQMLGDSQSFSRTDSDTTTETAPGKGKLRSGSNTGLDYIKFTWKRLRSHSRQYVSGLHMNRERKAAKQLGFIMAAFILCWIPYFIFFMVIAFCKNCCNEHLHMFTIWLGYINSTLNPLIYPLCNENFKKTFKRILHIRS

[4] = target: T5, Alpha-2A adrenergic receptor (Homo sapiens, UniProt P08913); type: functional, cell-based
T5 sequence (P08913 whole entry): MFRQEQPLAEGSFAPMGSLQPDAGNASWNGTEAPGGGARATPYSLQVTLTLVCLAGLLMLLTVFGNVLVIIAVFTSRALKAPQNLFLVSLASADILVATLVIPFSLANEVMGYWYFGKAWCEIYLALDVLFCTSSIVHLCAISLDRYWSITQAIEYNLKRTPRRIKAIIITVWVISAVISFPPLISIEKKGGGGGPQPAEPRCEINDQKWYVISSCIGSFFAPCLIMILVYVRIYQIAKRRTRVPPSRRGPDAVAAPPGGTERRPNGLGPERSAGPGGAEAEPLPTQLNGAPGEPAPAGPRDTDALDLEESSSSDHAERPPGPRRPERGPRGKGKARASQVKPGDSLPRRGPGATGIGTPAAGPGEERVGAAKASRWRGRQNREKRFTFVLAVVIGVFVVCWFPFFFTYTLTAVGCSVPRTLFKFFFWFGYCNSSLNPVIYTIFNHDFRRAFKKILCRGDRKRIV
Note: assay procedure not described here.

| Structure (SMILES) | AC50 (Adenosine receptor A3) [µM] | AC50 [1] [µM] | AC50 (Melanocortin receptor 3) [µM] | AC50 [2] [µM] | AC50 (Adenosine receptor A1) [µM] | AC50 [3] [µM] | AC50 (Histamine H1 receptor) [µM] | AC50 [4] [µM] |
| --- | --- | --- | --- | --- | --- | --- | --- | --- |
| CCCCCCO[C@@H](C)c1cccc(-c2csc(NC(=O)c3cc(Cl)c(/C=C(\C)C(=O)O)c(Cl)c3)n2)c1OC [LUSUTROMBOPAG] | 0.334 | 4.9 | – | – | – | – | – | – |
| C[C@]12CC[C@@H]3c4ccc(OC(=O)N(CCCl)CCCl)cc4CC[C@H]3[C@@H]1CC[C@@H]2OP(=O)(O)O [ESTRAMUSTINE PHOSPHATE] | 7.84 | – | – | – | – | – | – | – |
| CC(C)NC[C@H](O)COc1ccc(O)cc1 [PRENALTEROL] | > 30 | > 30 | – | – | – | – | – | – |
| CC(C)/N=c1\cc2n(-c3ccc(Cl)cc3)c3ccccc3nc-2cc1Nc1ccc(Cl)cc1 [CLOFAZIMINE] | – | 0.958 | > 30 | > 30 | > 30 | > 30 | 8.56 | > 30 |
| O=P1(N(CCCl)CCCl)NCCCO1 (stereo unspecified) [CYCLOPHOSPHAMIDE ANHYDROUS] | > 30 | > 30 | – | – | – | – | – | – |
| C=CCOc1ccc(CC(=O)O)cc1Cl [ALCLOFENAC] | > 30 | > 30 | – | – | – | – | – | – |
| N#Cc1ccnc(N2C(=O)CC[C@H]2C(=O)N(c2cncc(F)c2)[C@H](C(=O)NC2CC(F)(F)C2)c2ccccc2Cl)c1 [IVOSIDENIB] | > 30 | > 30 | – | – | – | – | – | – |
| OC[C@H]1NC[C@H](O)[C@@H](O)[C@H]1O | > 30 | > 30 | – | – | – | – | – | – |
| COc1cc2c(cc1OC)C1CC(=O)C(CC(C)C)CN1CC2 (stereo unspecified) [TETRABENAZINE] | – | > 30 | > 30 | > 30 | > 30 | > 30 | > 30 | > 30 |
| O=c1[nH]c2ccccc2n1CCN1CCN(c2cccc(C(F)(F)F)c2)CC1 [FLIBANSERIN] | 15.6 | 13 | – | – | – | – | – | – |
| O=C(O)[C@H]1/C(=C/CO)O[C@@H]2CC(=O)N21 [CLAVULANIC ACID] | – | > 30 | > 30 | > 30 | > 30 | > 30 | > 30 | > 30 |
| C[C@H](CCC(=O)O)[C@H]1CC[C@H]2[C@@H]3[C@H](O)C[C@@H]4C[C@H](O)CC[C@]4(C)[C@H]3CC[C@]12C [CHENODIOL] | – | > 30 | > 30 | > 30 | > 30 | > 30 | > 30 | > 30 |
| N[C@@H](Cc1cc(I)c(Oc2cc(I)c(O)c(I)c2)c(I)c1)C(=O)O [LEVOTHYROXINE] | – | > 30 | > 30 | > 30 | > 30 | > 30 | > 30 | > 30 |
| CN(C)CCOC(c1ccc(Cl)cc1)c1ccccn1 (stereo unspecified) [CARBINOXAMINE] | – | 1.3 | > 30 | > 30 | > 30 | > 30 | 0.11 | > 30 |
| C[C@@H](CN1CC(=O)NC(=O)C1)N1CC(=O)NC(=O)C1 [DEXRAZOXANE] | > 30 | > 30 | – | – | – | – | – | – |
| c1cnc2cc3c(cc2n1)[C@@H]1CNC[C@H]3C1 [VARENICLINE] | – | > 30 | > 30 | > 30 | > 30 | > 30 | > 30 | > 30 |
| CN1CCN(C(c2ccccc2)c2ccc(Cl)cc2)CC1 (stereo unspecified) [CHLORCYCLIZINE] | > 30 | 4.64 | – | – | – | – | – | – |

| Structure (SMILES) | AC50 (Adenosine receptor A3) [µM] | AC50 [1] [µM] | AC50 (Melanocortin receptor 3) [µM] | AC50 [2] [µM] | AC50 (Adenosine receptor A1) [µM] | AC50 [3] [µM] | AC50 (Histamine H1 receptor) [µM] | AC50 [4] [µM] |
| --- | --- | --- | --- | --- | --- | --- | --- | --- |
| O=C(O)[C@H](O)[C@@H](O)[C@H](O)[C@H](O)CO [GLUCONIC ACID] | > 30 | > 30 | – | – | – | – | – | – |
| C[C@H](Cn1cnc2c(N)ncnc21)OCP(=O)(O)O [TENOFOVIR ANHYDROUS] | – | > 30 | > 30 | > 30 | > 30 | > 30 | > 30 | > 30 |
| C=CC1=C(C(=O)O)N2C(=O)[C@@H](NC(=O)/C(=N\O)c3csc(N)n3)[C@H]2SC1 | – | > 30 | > 30 | > 30 | > 30 | > 30 | > 10 | > 10 |
| O=NN(CCCl)C(=O)NC1CCCCC1 [LOMUSTINE] | > 30 | – | – | – | – | – | – | – |
| CC(C)(Oc1ccc(Cl)cc1)C(=O)NC(=O)NCN1CCOCC1 [PLAFIBRIDE] | > 30 | > 30 | – | – | – | – | – | – |
| N=C(N)NCC1COc2ccccc2O1 (stereo unspecified) [GUANOXAN] | > 30 | > 30 | – | – | – | – | – | – |
| CNC1(c2ccccc2Cl)CCCCC1=O (stereo unspecified) [KETAMINE] | > 30 | > 30 | – | – | – | – | – | – |
| Nc1c2c(nc3ccccc13)CCCC2O (stereo unspecified) [VELNACRINE] | – | 25 | > 30 | > 30 | > 30 | > 30 | > 30 | > 30 |
| CC1=C(C/C=C(\C)CCC[C@H](C)CCC[C@H](C)CCCC(C)C)C(=O)c2ccccc2C1=O [PHYTONADIONE] | > 30 | > 30 | – | – | – | – | – | – |
| CC(=O)NC[C@H]1CN(c2ccc(N3CCOCC3)c(F)c2)C(=O)O1 [LINEZOLID] | – | > 30 | > 30 | > 30 | > 30 | > 30 | > 30 | > 30 |
| CN1CCC(N(Cc2cccs2)c2ccccc2)CC1 [THENALIDINE] | > 30 | 2.9 | – | – | – | – | – | – |
| Cc1cc(C)cc(OCC2CNC(=O)O2)c1 (stereo unspecified) [METAXALONE] | > 30 | > 30 | – | – | – | – | – | – |
| NC(=O)C1(N2CCCCC2)CCN(CCCN2c3ccccc3CCc3ccccc32)CC1 [CARPIPRAMINE] | > 30 | 2.2 | – | – | – | – | – | – |
| CCOCC(O)COc1ccc(NC(=O)CC[S+](C)C)cc1 (stereo unspecified) | – | > 30 | > 30 | > 30 | > 30 | > 30 | > 30 | > 30 |
| C[C@@H](O)[C@H]1C(=O)N2C(C(=O)O)=C(SCCN=CN)C[C@H]12 [IMIPENEM ANHYDROUS] | – | > 30 | > 300 | > 300 | > 300 | > 300 | > 300 | > 300 |
| CN(C)CCc1c[nH]c2ccc(CS(=O)(=O)N3CCCC3)cc12 [ALMOTRIPTAN] | – | 15 | > 30 | > 30 | > 30 | > 30 | > 30 | > 30 |
| C[C@]12CCC(=O)C=C1CC[C@H]1[C@@H]3CC[C@](O)(C(=O)CO)[C@@]3(C)C[C@H](O)[C@@]12F [FLUDROCORTISONE] | – | > 30 | > 30 | > 30 | > 30 | > 30 | > 10 | > 10 |
